# In patent publication US10059968B2, “Method for increasing lipid content in microorganisms and modified microorganisms therefrom” (Reliance […], priority 2014, dated 2018):
# System: Chlamydomonas reinhardtii CW-15 cells
# Experiment: Nile Red Assay of lipid content in cells grown with cycloheximide
# Format: cell-based
# Procedure: FIG. 4A illustrates the graphical representation of fluorescence observed for Chlamydomonas reinhardtii CW-15 cells (Day 4) in Tris Acetate Phosphate medium grown with and without cycloheximide using Nile Red Assay;
# Chemical inhibition of protein synthesis is carried out using cycloheximide. Chlamydomonas reinhardtii CW-15 (Chlamydomonas Resource Center, USA), is grown in the presence of varying amounts of cycloheximide (50 μM to 500 μM) to find out the effect of inhibition of protein synthesis on lipid content. […] FIGS. 4B and 4C depict the Nile Red stained cells of Chlamydomonas reinhardtii CW-15 cells grown without the protein inhibitor and in the presence of the protein inhibitor, respectively.
smiles,measurement,setting,value
C[C@@H]1C[C@@H]([C@H](O)CC2CC(=O)NC(=O)C2)C(=O)[C@@H](C)C1 [cycloheximide],lipid content (Nile Red fluorescence),"Chlamydomonas reinhardtii CW-15 grown with cycloheximide 50 μM to 500 μM vs without, Day 4, Tris Acetate Phosphate medium",increase in lipid content
same,lipid content (Nile Red fluorescence),cells grown in the presence of 50 μM of cycloheximide,Highest lipid content
same,lipid content (Nile Red fluorescence),higher amounts of cycloheximide (more than 200 μM),decrease in the lipid content
